Reference: PubChem BioAssay (NCI)
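The compound was tested at five concentrations on cells cultured in 96-well plates, with a 48-hour exposure period. GI50 marks 50% less growth. TGI is the concentration that stops growth completely.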

What was measured:
Test in all cases: NCI anticancer screen, dose series, 48 h
SNB-19 CNS = tested on: SNB-19 CNS
OVCAR-4 ovarian = tested on: OVCAR-4 ovarian
ACHN renal = tested on: ACHN renal
A498 renal = tested on: A498 renal
OVCAR-3 ovarian = tested on: OVCAR-3 ovarian
HOP-62 NSCLC = tested on: HOP-62 NSCLC
BT-549 breast = tested on: BT-549 breast
SW-620 colon = tested on: SW-620 colon
RPMI-8226 leukemia = tested on: RPMI-8226 leukemia
MOLT-4 leukemia = tested on: MOLT-4 leukemia

SMILES | GI50 (SNB-19 CNS) | TGI (SNB-19 CNS) | GI50 (OVCAR-4 ovarian) | TGI (OVCAR-4 ovarian) | GI50 (ACHN renal) | TGI (ACHN renal) | GI50 (A498 renal) | TGI (A498 renal) | GI50 (OVCAR-3 ovarian) | TGI (OVCAR-3 ovarian) | GI50 (HOP-62 NSCLC) | TGI (HOP-62 NSCLC) | GI50 (BT-549 breast) | TGI (BT-549 breast) | GI50 (SW-620 colon) | TGI (SW-620 colon) | GI50 (RPMI-8226 leukemia) | TGI (RPMI-8226 leukemia) | TGI (MOLT-4 leukemia) | GI50 (MOLT-4 leukemia)
O=C(COc1ccc(/C=C2\Oc3ccccc3C2=O)cc1)Nc1nc2ccccc2s1 | 41.4 µM | > 100 µM | 21.2 µM | > 100 µM | 28.9 µM | > 100 µM | 37.1 µM | 94.5 µM | 1.9 µM | 4.78 µM | > 69.4 µM | > 100 µM | 6.67 µM | > 80.5 µM | 24.2 µM | > 100 µM | 2.79 µM | 15.7 µM | – | –
COc1cc(/C=C2\NC(=O)C(Cc3cc(OC)c(OC)c(C)c3OC)N(C(C)=O)C2=O)c(OC)c(C)c1OC (configuration not stated) | – | > 100 µM | – | > 100 µM | – | > 100 µM | – | > 100 µM | – | > 100 µM | – | > 100 µM | – | – | – | > 100 µM | – | > 100 µM | > 100 µM | –
C(=Nc1nc(SCc2ccccc2)nc2[nH]ncc12)c1cccs1 | 26.4 µM | > 100 µM | > 100 µM | > 100 µM | 43.6 µM | > 100 µM | – | – | > 100 µM | > 100 µM | > 100 µM | > 100 µM | 41 µM | > 100 µM | 47.2 µM | > 100 µM | 27.6 µM | > 100 µM | 85.9 µM | 23.6 µM
CCOC(=O)/C(=C/c1ccccn1)C(=O)c1ccccc1 | – | 31.8 µM | – | 36.8 µM | – | > 56.2 µM | – | 43.1 µM | – | 27.4 µM | – | 33 µM | – | – | – | 32.6 µM | – | 13.2 µM | 26 µM | –
COc1ccc(/C=C2\C(=O)N(NC(C)=O)c3ccccc32)cc1 | – | > 100 µM | – | > 100 µM | – | > 100 µM | – | > 100 µM | – | > 100 µM | – | > 100 µM | – | – | – | > 100 µM | – | > 100 µM | > 100 µM | –
COC(=O)C(C(=O)C(=O)Nc1c(Cl)cc([N+](=O)[O-])cc1Cl)c1csc(-n2nc(C3=CCCCC3)cc2-c2ccccc2)n1 (configuration not stated) | – | > 100 µM | – | > 100 µM | – | > 100 µM | – | > 100 µM | – | > 100 µM | – | > 100 µM | – | – | – | > 100 µM | – | > 100 µM | > 100 µM | –
CCOC(=O)C1(C)CCC(C(C(=O)O)C(=O)O)CC1=O (configuration not stated) | – | > 100 µM | – | > 100 µM | – | > 100 µM | – | > 100 µM | – | > 100 µM | – | > 100 µM | – | – | – | > 100 µM | – | > 100 µM | > 100 µM | –
CCCCCC/C=C\CCCCCCCCC(=O)c1cccc(OC)c1OC | – | > 100 µM | – | – | – | > 100 µM | – | > 100 µM | – | – | – | > 100 µM | – | > 100 µM | – | > 100 µM | – | > 100 µM | > 100 µM | –
CN1CCN(c2c(F)cc(NC3=C(Cl)C(=O)c4ncccc4C3=O)cc2F)CC1 | 17.1 µM | 31.1 µM | 1.33 µM | 2.66 µM | 1.61 µM | 2.96 µM | 13.4 µM | 29.2 µM | 0.303 µM | 1.37 µM | 19.2 µM | 42.9 µM | 12.9 µM | 25.9 µM | 1.76 µM | 3.82 µM | – | – | 6.71 µM | 1.79 µM
